Assay results reported in patent US20140099354A1, “BIOPASSIVATING MEMBRANE STABILIZATION BY MEANS OF NITROCARBOXYLIC ACID-CONTAINING PHOSPHOLIPIDS IN PREPARATIONS AND COATINGS” (priority 2011, published 2014).

Key:
sciatic nerve = assay: Viability of cryopreserved nerve grafts (Annexin-V staining, FACS); type: cell-based, rats; details: 100 mmolar solution 1 hour; −30° C. 72 hours
Human red blood cells = assay: Erythrocyte membrane stability (osmotic, mechanical, storage); type: cell-based; details: 30 mmol/l, incubated for an hour
Procedure: The physico-chemical properties of cell membranes determine their strength of resistance to physical, chemical and immunological alterations. Human red blood cells and mast cells from mice dissolved in solutions of physiological NaCl containing the natural phospholipids SOPC and PLPC or the analogue nitrated phospholipids (1-stearoyl-2-(9-nitrooleoyl)-sn-PC (example P14) and 1-palmitoyl-2-(9-nitrolinoleoyl)-sn-PC) (example P7) at a concentration of 30 mmol/l were incubated for an hour in order to assess the effects of an up-take of phospholipids into the cell membranes with respect to resistance to external alterations. Similarly, cells incubated with mixtures of nitro-carboxylic acid (s)-containing phospholipids according to examples N2-N14, F, Q, S, O3-O6, P1-P3 and P6 were investigated.
For assessment of osmotic stability, cells were separated from serum by centrifugation first and then cleaned three times with physiological NaCl solution. […] After incubation for 30 minutes under the above described conditions, the tubes were centrifuged and an aliquot was taken for photometric measurement of hemoglobin by absorbance at a wavelength of 546 nm at a temperature of 30° C.
For the examinations of mechanical stability, erythrocytes were prepared according to the procedure above. […] Then, the samples were centrifuged and supernatants were analyzed as stated above. […]

[1] = Abrasion stability and traction work load of coated balloon catheters; type: physicochemical
Procedure: Balloon catheters were coated by means of the Langmuir-Schaefer procedure where the balloon segment was aligned longitudinally and coaxial to the solution surface, dipping into the liquid for approx. 1 mm over the entire length. Then the catheter was slowly rotated around its axis 5 times. Phospholipids were dissolved at a concentration of 3 mmol in an ion-free aqueous solution at 50° C. The solution was cooled and given to the coating solution then. In case of incomplete dissolution of the phospholipids or if they separated when cooled, DMSO was added at a concentration of up to 20 vol.-%, preferably up to 10 vol.-%. After coating, the catheters were vacuum dried for 8 hours in order to remove residual solvent.
The tubing was filled with a 10% human albumin solution at a temperature of 35° C. The cable system, which had previously been brought through the tubing was connected to the catheter tip and tracked outside the tubing by reversing pulleys, which allowed exactly vertically traction of the cable that was connected to a motorized winch. The winch was mounted on a digital precision balance. The catheters mounted in this manner were pulled through the tubing system and the weight changes measured by the balance, which represented the traction work load achieved for the passage of the catheter, was recorded continuously. These readings were integrated over time. The resultant values allow estimation of the total shear force that occurred during the passage of the catheter through the tubing system.
The abrasion or loss of coating layers was determined by weighing the catheter before and after coating as well as after the mechanical stability test in the tubing system as described above using a high precision balance.

TRPV1, 2 and 4, TRPA1 = assay: Inducible ion current of TRP receptors in Xenopus oocytes (voltage clamp); type: cell-based, rat; details: 50 mmol/l, 10 and 60 minutes
Procedure: An established in-vitro model of Xenopus oocytes (Dascal N, 1987 The use of Xenopus oocytes. CRC critical reviews in biochemistry 22, 317-387) was used to study the influence of incubation with PL on ion channels regulated by membrane receptors. Defolliculized oocytes were transfected with cRNA (rat) of TRPV1, 2 and 4, as well as of TRPA1, stored in tissue culture plates and incubated in culture medium (ND 96) at 15° C. under constant motion in the incubator for 7 to 10 days.
Induced leakage currents through activation of the TRP receptors was determined by means of double electrode voltage-clamp technique (Ahern G P, Brooks I M, Miyares R L &Wang X B, 2005, Extracellular cations sensitize and gate capsaicin receptor TRPV1 modulating pain signalling. J Neurosci 25, 5109-5116). Ooocytes were probed with borosilicate glass capillaries (Clark) and connected to a feedback amplifier (Gene clamp Amplifier, Axon instruments). The membrane potential of oocytes was clamped to −60 or −90 mV. The presence of a directive […] current was compared to non-transfected controls. The investigations were performed in a miniature organ bath in calcium-free buffered (Hepes, pH 7.3) NaCl solution. The TRPV1 receptor excitation was initiated by rapidly changing of the bath solution against a capsaicin solution (10 μmol). Results of non-pretreated oocytes were used for normative comparison of subsequent measurements of incubatesd cells. Investigations with incubated cells were carried out in the same way for oocytes transfected with the TRPV2, and TRPV4 and TRPA1 receptors, wherein the receptor agonists cannabidiol (10 μmol) and 4α-PDD (4α-phorbol 12,13-didecanoate, 50 μmol) and innamaldehyde (50 μmol) were used instead of capsaicin.

[2] = system: Murine macrophages (RAW 264.7)
Excerpt: The survival rate and cytokine production of adhering macrophages were examined to evaluate the bio-passivating properties of various nitro-carboxylic acid containing phospholipids.
Templates made of glass were coated with nitro-carboxylic acid-containing and native phosphatidylcholines and with an admixture of 50% phosphatidylcholine and phosphatidyletholamine, as described in example 2. […] The glass slides were placed in Teflon bowl, uncoated slides served as control. Murine macrophages (RAW 264.7) were cultured to a cell density of 5×10^5. Cell suspensions were added to the culture dishes, so that macrophages could attach on the slides under standard culture conditions for 24 to 48 hours. […] The cell survival rate was investigated using an MTT assay.

ovarian tissue strips [3] = assay: Cryopreservation of ovarian tissue strips: intact follicles; details: liquid nitrogen 14 days, cultured 14 days
Procedure: (§1) Ovar ectomy was performed in female sheep; resected tissues were cut into 60 ovarian tissue strips. The ovarian strips were either cultured directly (n=4) or prepared with a usual solution for vitrification (VS group; Vitrification Kit, Sage, USA) or incubated with nitrated PLs (NPL group). For this purpose, the tissue strips were bathed in an equibrilation solution (ART-8025-A) which consisted of MOPS-buffered amino acids and gentamicin sulfate (10 mg/l), and 7.5% (v/v) of each DMSO and ethylene glycol and 12 mg/ml human serum albumin for 30 minutes. Thereafter the strips of the VS group were placed in the vitrification solution (ART-8025-B), which is a MOPS-buffered solution containing amino acids and gentamicin sulfate, that contain 15% (v/v) each DMSO and ethylenglycol, 12 mg/ml human albumin and 0.6 M sucrose. The strips of the NPL group were placed in a solution containing 25% (v/v) nitrated PL SNOPC or PNLPC in a PBS-buffered 1% DMSO solution containing 5% human albumin for 60 minutes. The treated tissue strips were then immersed into liquid nitrogen and kept here for 14 days. Then removal and warming of the tissue pieces was performed in AIM-V medium (Gibco, Invitrogen) in a sterile culture dish, first up to 5° C. within 20 minutes, then heated further in a water bath up to 37° C., within the following 60 minutes. The culture medium was replaced and specimens cultured for 14 days. After this, the tissue pieces were fixed, embedded in paraffin and cut, followed by histological examination. […] The total number of intact follicles in the control group was taken as a reference to the number of follicles in the cryopreserved groups.
(§2) The culture medium has been exchanged by every 2nd day; samples for hormone analysis were taken and frozen at that time. Determination of 17 β-estradiol and progesterone were performed with a radio-immuno assay (diagnostic systems laboratories, USA).

[4] = biological target: Glycophorin A (GpA) peptides (Homo sapiens, UniProt P02724); details: 10-50% (mol/mol) admixed to DSPC vesicles; versus native phospholipids
Sequence of Glycophorin A (GpA) peptides (P02724 92-114 limits assumed, species assumed): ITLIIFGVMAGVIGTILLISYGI
Procedure: The change of the Frster resonance energy transfer (FRET) of fluorescence-labelled peptides with α helical trans-membrane structure in a double lipid layer can be used for determination of the concentration of monomeric and dimeric trans-membrane helices and for quantitative determination of helix-helix interactions.
FRET measurements were carried out with fluorescence-marked Glycophorin A (GpA) peptides. The transmembrane GpA forms dimers, whereby the energy transfer can be measured. 5-carboxyfluorescein and tetramethyl-6-carboxyrhodamine were used as chromophores.
Degree of dimerization of the model protein was measured in a direct comparison between native phospholipids and the corresponding phospholipids with a nitrated alkyl chain for the given concentrations of phospholipids (10-50%, mol/mol) admixed to the DSPC vesicles.
For determination of the dimerization, the peptides of FL GpAwt and TAMRA GpAwt were weighed and dissolved in TFE. The measurements were carried out on a fluorescence spectrometer of type Aminco Bowman series 2 (Thermo Spectronic).

[5] = system: Heart muscle cells from rabbit hearts; assay: Cytosolic Ca2+ concentration in heart muscle cells (fluo-4 fluorescence); type: cell-based
Procedure: Heart muscle cells were taken from rabbit hearts according to a method described elsewhere (Shannon T R, Ginsburg K S, Bers D M. Quantitative assessment of the SRCa^2+ leak-load relationship. Circ Res. 2002; 91:594-600). The prepared cells were cultured for 72 hours.
The cytosolic Ca^2+ concentrations were determined with fluo-4 fluorescence. Therefore the cells were incubated with 10 μmol fluo-4 AM (1%) for 30 minutes and washed thereafter three times with PBS. The cells were stimulated in a Tryode solution on a platinum electrode with a frequency of 0.5 Hz over 20 cycles. Then the ambient medium was changed and an electrolyte-free colloidal solution was added. Determination of the Ca concentration was performed after each series of stimulation over 20 cycles. Calcium content was estimated by the use of confocal laser scanning microscopy (Olympus). At least 10 cells per experiment were evaluated in a post-systolic interval of 1000 ms. The measurements were repeated at least three times. β-adrenergic stimulation was performed with 250 nmol/L isoproterenol, which was given to the medium.

cortical neurons = assay: Hypoxia and reperfusion of cortical neurons (viability, LDH)
Procedure: To determine whether the membrane-stabilizing properties of nitrated phospholipids can lead to attenuation of effects due to an ischemic event or the re-perfusion damage, cortical neurons and cardiac myocytes were investigated.
Freshly prepared cortex tissue was separated with Papain and tissue suspensions were cultured in culture vessels (Prim ARA; BD Biosciences, USA) with Neurobasal A/B27 medium (Invitrogen) for 10-12 days. Cell suspensions were divided, and replenished with suspensions of the natural phospholipids SOPC and PLPC, as well as the analogue phospholipids with nitration of unsaturated fatty acids (1-stearoyl-2-(9-nitrooleoyl)-sn-PC and 1-palmitoyl-2-(9-nitrolinoleoyl)-sn-PC) at concentrations of 10 to 50 μmol/l in NaCl (0.9%) were added. […] After 4 hours, the cells were washed three times with buffered saline and buffered NaCl solution with the addition of MgCl2 and CaCl2 in an anaerobic atmosphere (85% N2, 5% O2, 10% CO2; at 35° C.) for 10 and 30 minutes. Then, the cells were washed once and grown in culture medium under aerobic conditions for 24 hours. […] Cells were stained with annexin V-FITC and propidium iodide (Molecular probes, USA). The vital and necrotic cells were measured by flow cytometry (FACSCalibur, Becton & Dickinson). The volume of culture medium was determined and an aliquot was taken for determination of the LDH (lactate dehydrogenase) concentration.

[6] = Tissue response to coated silicone implants in vivo after bleomycin; parameters: species or system Wistar rats; details: silicone cushions, subcutaneous, 7 to 90 days
Procedure: Induction of fibrotic tissue production by connective tissue activation as a consequence of implantation of foreign material was examined in an in-vivo animal model. As implant materials, sterile silicone cushions having a diameter of 1 cm were used.
In male Wistar rats (190-240 g) that were fed and housed under identical conditions for one week, general anaesthesia was performed by intramuscular injection of 0.008 mL/100 g ketamine and 0.004 mL/100 g xylocaln chloride 2%. Then the back of the animals was shaved, sterilized and infiltrated with xylocalne chloride. A paravertebral incision was made on both sides with a length of 1.5 cm followed by preparation of the subcutaneous tissue, so that on both sides approx. 2×2 cm cavities were preformed. Hemostasis was achieved by cauterization, if necessary. Then balls of cotton saturated with Bleomycin (cell-pharm GmbH, Hannover, Germany: 1% in 0.9% NaCl solution) were inserted into the cavities for 3 minutes and then removed. Without rinsing the cavities, the implants coated with a nitrated phospholipid were inserted into the cavity on the left side and the implants coated with natural phospholipid into the cavity on the right side. Thereafter, a layer by layer wound closure was performed and a sterile adhesive bandage was applied.
The animals were kept according to standard conditions for 7, 14, 30, 60 and 90 days. At any study time endpoint, two animals were euthanized. After death the well visible and palpable implants were removed using en-block resection technique. The resected specimens were fixed and embedded in paraffin. Then they were cut in half and the liquid silicone was removed. The specimens were embedded again and cut into thin slices which were stained with H & E and Sirius red, and evaluated by light microscopy. Evaluation was done according to the following criteria:
A1: none; A2: occasional monocytic cells or lymphocytes; A3: moderate numbers or groups of monocytic cells or lymphocytes; A4: dense infiltration of monocytes, eosinophils, or giant cells.
B1: none; B2: collagen-rich layer around the implant; B3: thick (>1 mm) and dense collagen-rich tissue formation around the implant.
In every 10th serial section 10 fields of view uniformly distributed over the circumference of the implant were evaluated and the herein predominant expression was assigned to an event table. In total, 200 fields of view were analyzed per implant

[7] = system: Cardiac muscle cells derived from neonatal rat heart; assay: Hypoxia of cardiac muscle cells (viability, mitochondrial NAD+); type: cell-based; details: for mitochondrial NAD+ content: hypoxia, baseline 5
Procedure: Cardiac muscle cells derived from neonatal rat heart (Nitobe J, et al, Reactive oxygene species regulate FLICE inhibitory protein and susceptibility to FAS-mediated apoptosis in cardiac myocytes. Cardiovasc RES 2003, 119-28). The heart muscle cells were cultured in Dulbecco/Eagle medium (DMEM) with 10% FCS added under standard conditions for two days. Incubation with the natural and nitrated phospholipids, as well as the hypoxia experiments were carried out as described above. Incubated cells were grown in culture medium under standard conditions for 24 hours. This is followed by a vitality staining as described above. […] The frozen cells were thawed up to -4° C. and homogenized for subsequent NAD^+ analyses. By means of differential centrifuge, pellets containing mitochondria were separated (Di Lisa, et al, 1993; Am. J. Physiol. 264, […]-[…]). The NAD^+ content was determined by fluoroscopy, and normalized to the protein content (Veloso, D., and […]., 1974;) Anal. Biochem., 449-450).

ovarian tissue strips [8] = assay: Cryopreservation of ovarian tissue strips: 17 β-estradiol and progesterone (radio-immuno assay); type: cell-based, sheep; details: after cryopreservation and culture
Procedure: as §1, §2

CCCCCCCC/C=C(\CCCCCCCC(=O)O[C@H](COC(=O)CCCCCCCCCCCCCCC)COP(=O)(O)OCCN)[N+](=O)[O-] [Example S, 1-Palmitoyl-2-(E-9-nitrooleoyl)-sn-3-glycero-phosphatidylethanolamine]
proportion of living cells relative to non-frozen control (sciatic nerve): 85% | erythrocyte membrane stability (Human red blood cells): very similar values as the nitrated phosphocholines | mechanical removal of coating substance and workload to pull the catheter through PTFE tubing [1]: Very similar results | inducible membrane channel activity of TRP channels (TRPV1, 2 and 4, TRPA1): significant decrease of inducible membrane channel activity

CCCCCCCC/C=C(\CCCCCCCC(=O)OC[C@H](COP(=O)([O-])OCC[N+](C)(C)C)OC(=O)CCCCCCCCCCCCCCC)[N+](=O)[O-] [Example Q, 1-(9-Nitrooleoyl)-2-(palmitoyl)-sn-3-glycero-phosphocholine]
viability of adhering macrophages [2]: 95-98% | proportion of living cells relative to non-frozen control (sciatic nerve): 80% | rate of intact follicles relative to the control group (ovarian tissue strips [3]): 96% | mechanical removal of coating substance and workload to pull the catheter through PTFE tubing [1]: Very similar results

CCCCCCCC/C=C(\CCCCCCCC(=O)O[C@H](COC(=O)CCCCCCCCCCCCCCCCC)COP(=O)([O-])OCC[N+](C)(C)C)[N+](=O)[O-] [Example P14, 1-stearoyl-2-(E-9-nitrooleoyl)-sn-3-glycerophosphocholine]
degree of dimerization of the model membrane protein [4]: significantly greater reduction of dimerization | end of diastole (ED) cytosolic calcium ([5]; after hypoxia): 80 nmol/L | post systolic (PS) cytosolic calcium ([5]; after hypoxia): 40 nmol | end of diastole (ED) cytosolic calcium ([5]; after hypoxia and stimulation with isoproterenol): 90 nmol/L | end of diastole (ED) cytosolic calcium ([5]; normoxic conditions): 30 nmol/L | post systolic (PS) cytosolic calcium ([5]; normoxic conditions): 10 nmol | increase in LDH versus normoxemia culture (cortical neurons; 10-minutes ischemia): 120 fold | viability of cortical cells measured after 24 hours (cortical neurons; 10-minutes ischemia): 68% | increase in LDH versus normoxemia culture (cortical neurons; 30-minutes ischemia): 230 fold | viability of cortical cells measured after 24 hours (cortical neurons; 30-minutes ischemia): 54% | biocompatibility of coated implants compared to natural PLs [6]: improved biocompatibility of implants several-fold | proportion of living cells relative to non-frozen control (sciatic nerve): 86% | loss of viability of heart muscle cells after hypoxia ([7]; (10 minutes)): 6% | loss of viability of heart muscle cells after hypoxia ([7]; (30 minutes)): 16% | mitochondrial NAD+ content ([7]; first printed value): 3.8 nmol/mg protein | mitochondrial NAD+ content ([7]; second printed value): 3.3 nmol/mg protein | rate of intact follicles relative to the control group (ovarian tissue strips [3]): 96% | inducible membrane channel activity of TRP channels (TRPV1, 2 and 4, TRPA1): significant decrease of inducible membrane channel activity | estradiol (ovarian tissue strips [8]): 8.6 ng/mL | progesterone (ovarian tissue strips [8]): 0.6 ng/mL

CCCCCCCCC=C(CCCCCCCC(=O)OC[C@H](COP(=O)(O)OC1C(O)C(O)C(O)C(O)C1O)OC(=O)CCCCCCCC(=CCCCCCCCC)[N+](=O)[O-])[N+](=O)[O-] (stereo partly drawn) [Example F, 1,2-di-(9-nitrooleoyl)-sn-3-glycerophosphatidylinositol]
biocompatibility of coated implants compared to natural PLs [6]: improved biocompatibility of implants several-fold | proportion of living cells relative to non-frozen control (sciatic nerve): 88% | erythrocyte membrane stability (Human red blood cells): very similar values as the nitrated phosphocholines | mechanical removal of coating substance and workload to pull the catheter through PTFE tubing [1]: Very similar results | inducible membrane channel activity of TRP channels (TRPV1, 2 and 4, TRPA1): significant decrease of inducible membrane channel activity
